Experiments:
human HDAC1 = target: T1, human HDAC1 (Homo sapiens, UniProt Q13547); test: Homo sapiens HDAC1 inhibition assay (Fluor-de-Lys, enzymatic); assay type: biochemical; details: human HDAC enzymatic assay; read-out: hHDAC IC50
T1 construct: made in house; host or cells: HeLa (ATCC CCL-2), mammalian cells
Outline: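 Product developed with trypsin developer containing 2 μM TSA to stop the reaction; fluorescence measures deacetylase activity, inversely related to inhibition.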

[1] = tested on: Plasmodium falciparum 3D7; test: P. falciparum growth inhibition assay (Pf-LDH); assay type: cell-based; details: Plasmodium falciparum, Erythrocyte; P. falciparum 3D7 infected erythrocytes, 72 h incubation, PfLDH readout
Outline: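 P. falciparum 3D7 (chloroquine-sensitive) at 0.25% parasitemia and 2% hematocrit was incubated with compound for 72 h at 37° C under 4% CO2/3% O2/93% N2. After freeze-thaw, PfLDH activity was read at 650 nm with lactate/APAD/NBT/diaphorase mix (pH 8.0).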

T1 sequence (Q13547 whole entry): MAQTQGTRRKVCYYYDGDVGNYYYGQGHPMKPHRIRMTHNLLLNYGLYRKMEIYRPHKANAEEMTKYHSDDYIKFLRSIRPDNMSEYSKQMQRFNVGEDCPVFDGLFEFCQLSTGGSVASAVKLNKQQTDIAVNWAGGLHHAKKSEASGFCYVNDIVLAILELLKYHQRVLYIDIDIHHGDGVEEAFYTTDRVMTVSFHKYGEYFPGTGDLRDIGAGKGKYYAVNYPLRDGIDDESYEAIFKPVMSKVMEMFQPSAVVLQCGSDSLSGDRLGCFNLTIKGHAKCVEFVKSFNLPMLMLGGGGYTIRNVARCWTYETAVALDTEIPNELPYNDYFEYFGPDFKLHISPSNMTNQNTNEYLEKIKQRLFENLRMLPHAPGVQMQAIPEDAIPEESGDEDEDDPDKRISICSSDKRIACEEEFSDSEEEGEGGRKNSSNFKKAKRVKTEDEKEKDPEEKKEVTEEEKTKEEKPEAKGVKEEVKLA

IC50 (human HDAC1) [µM] | EC50 [1] [µM] | SMILES
> 5 | 1 to 5 | CNC(=O)CCCCC[C@H](NC(=O)c1cc(C)nn1C)c1ncc(-c2ccc(-c3ccn(C)n3)cc2)[nH]1 [Entry 215, (S)-1,3-dimethyl-N-(1-(5-(4-(1-methyl-1H-pyrazol-3-yl)phenyl)-1H-imidazol-2-yl)-7-(methylamino)-7-oxoheptyl)-1H-pyrazole-5-carboxamide]
> 5 | 1 to 5 | CNC(=O)CCCCC[C@H](NC(=O)c1cc(C)n(C)n1)c1ncc(-c2ccc(-c3ccn(C)n3)cc2)[nH]1 [Entry 216, (S)-1,5-dimethyl-N-(1-(5-(4-(1-methyl-1H-pyrazol-3-yl)phenyl)-1H-imidazol-2-yl)-7-(methylamino)-7-oxoheptyl)-1H-pyrazole-3-carboxamide]
1 to 5 | 1 to 5 | CNC(=O)CCCCC[C@H](NC(=O)c1cc(C(C)(C)C)nn1C)c1ncc(-c2ccc(-c3ccn(C)n3)cc2)[nH]1 [Entry 217, (S)-3-(tert-butyl)-1-methyl-N-(1-(5-(4-(1-methyl-1H-pyrazol-3-yl)phenyl)-1H-imidazol-2-yl)-7-(methylamino)-7-oxoheptyl)-1H-pyrazole-5-carboxamide]
< 1 | < 1 | Cn1ccc(-c2ccc(-c3cnc([C@H](CCCCCC(N)=O)NC(=O)c4cncs4)[nH]3)cc2)n1 [Entry 218, (S)-N-(7-amino-1-(5-(4-(1-methyl-1H-pyrazol-3-yl)phenyl)-1H-imidazol-2-yl)-7-oxoheptyl)thiazole-5-carboxamide]
1 to 5 | 1 to 5 | CNC(=O)CCCCC[C@H](NC(=O)c1cncs1)c1ncc(-c2ccc3ccnc(OC)c3c2)[nH]1 [Entry 219, (S)-N-(1-(5-(1-methoxyisoquinolin-7-yl)-1H-imidazol-2-yl)-7-(methylamino)-7-oxoheptyl)thiazole-5-carboxamide]
< 1 | < 1 | CNC(=O)CCCCC[C@H](NS(=O)(=O)c1ccc(C#N)cc1)c1ncc(-c2cc3ccccc3nc2OC)[nH]1 [Entry 220]
> 5 | 1 to 5 | CNC(=O)CCCCC[C@H](NC(=O)c1cncs1)c1ncc(-c2ccc(-c3ccn(C)n3)cc2)o1 [Entry 222, (S)-N-(1-(5-(4-(1-methyl-1H-pyrazol-3-yl)phenyl)oxazol-2-yl)-7-(methylamino)-7-oxoheptyl)thiazole-5-carboxamide]

Second part, the compound before the results:

SMILES | IC50 (human HDAC1) [µM] | EC50 [1] [µM]
CNC(=O)CCCCC[C@H](NC(=O)Cc1ncccn1)c1ncc(-c2ccc(-c3ccn(C)n3)cc2)[nH]1 [Entry 211] | > 5 | > 5
CNC(=O)CCCCC[C@H](NC(=O)c1cnn(C)c1)c1ncc(-c2ccc(-c3ccn(C)n3)cc2)[nH]1 [Entry 212, (S)-1-methyl-N-(1-(5-(4-(1-methyl-1H-pyrazol-3-yl)phenyl)-1H-imidazol-2-yl)-7-(methylamino)-7-oxoheptyl)-1H-pyrazole-4-carboxamide] | 1 to 5 | < 1
CNC(=O)CCCCC[C@H](NC(=O)c1ccnn1C)c1ncc(-c2ccc(-c3ccn(C)n3)cc2)[nH]1 [Entry 213, (S)-1-methyl-N-(1-(5-(4-(1-methyl-1H-pyrazol-3-yl)phenyl)-1H-imidazol-2-yl)-7-(methylamino)-7-oxoheptyl)-1H-pyrazole-5-carboxamide] | > 5 | 1 to 5
CNC(=O)CCCCC[C@H](NC(=O)c1ccn(C(F)F)n1)c1ncc(-c2ccc(-c3ccn(C)n3)cc2)[nH]1 [Entry 214, (S)-1-(difluoromethyl)-N-(1-(5-(4-(1-methyl-1H-pyrazol-3-yl)phenyl)-1H-imidazol-2-yl)-7-(methylamino)-7-oxoheptyl)-1H-pyrazole-3-carboxamide] | > 5 | 1 to 5
CNC(=O)CCCCC[C@H](NC(=O)c1cncs1)c1ncc(-c2ccc(-c3ccn[nH]3)cc2)[nH]1 [Entry 221, (S)-N-(1-(5-(4-(1H-pyrazol-5-yl)phenyl)-1H-imidazol-2-yl)-7-(methylamino)-7-oxoheptyl)thiazole-5-carboxamide] | 1 to 5 | < 1

Reference: patent publication US9365541B2, “Compounds for use in the treatment of parasitic diseases” (IRBM—SCIENCE PARK S.P.A., priority 2012, dated 2016)
